Patent US20240207461A1, “RADIOACTIVE ANTITUMOR AGENT” (NIHON MEDI-PHYSICS CO., LTD., priority 2021, published 2024)

Tests used:
CD-1 mice [1] = assay: Autopsy and measurement of kidney weight; format: in vivo, mouse; conditions: at autopsy, 184 days from administration
Experimental: The ^225Ac-labeled anti-MUC5AC humanized antibody produced in Production Example 3 was administered to CD-1 mice (5 weeks old, male, manufactured by Charles River Japan), each group n=5 at a dose of 15 kBq/mouse and, as a renal protective agent, any of Zn-DTPA, furosemide, spironolactone, and eplerenone was administered in combination at the dosage, administration method, administration frequency, and initial administration timing shown in Table 1. That is, a group to which only ^225Ac-labeled anti-MUC5AC humanized antibody was administered (Comparative Example 1), a group to which ^225Ac-labeled anti-MUC5AC humanized antibody and each renal protective agent administered in combination (Example 1 to Example 7), and a group to which only a renal protective agent is administered without administration of ^225Ac-labeled anti-MUC5AC humanized antibody (Comparative Examples 2 to 5) were established. The dose of the ^225Ac-labeled anti-MUC5AC humanized antibody, each renal protective agent, and feeding conditions are shown in Table 1. The sustained release tablets used for the transdermal administration group of each renal protective agent were those manufactured by Innovative Research of America, and the mixed feed containing 0.004% of each renal protective agent used was manufactured by Oriental Yeast Co., Ltd.
On the final day of the observation period (184 days from the day of administration of the ^225Ac-labeled anti-MUC5AC humanized antibody), euthanasia and autopsy were performed by exsanguination under isoflurane anesthesia. After autopsy, the kidneys were collected and weighed. The obtained organ weight measurement results (excluding Example 7) were confirmed for the homoscedasticity of the measured values. Since homoscedasticity was confirmed for all items, a significant difference test was performed using the Tukey method, which is a parametric test. The significance level was set to 5%.

CD-1 mice [2] = assay: Urinary renal toxicity marker (urinary NGAL/creatinine ratio by ELISA); format: in vivo; conditions: urine 16 weeks after administration of ^225Ac-labeled antibody (15 kBq/mouse), n=4 to 5
Experimental: Whether combined administration of a ^225Ac-labeled anti-MUC5AC humanized antibody prepared using ^225Ac-labeled DOTAGA-DBCO and a compound expected to have a renal protective effect (renal protective agent) reduces delayed renal toxicity caused by radiation emitted from ^225Ac or ^225Ac daughter nuclide was evaluated. […]
During the observation period, body weight measurement, blood cell measurement, and renal toxicity marker measurement were performed over time and signs of toxicity were evaluated.
Urine was collected from each individual 16 weeks after the administration of the ^225Ac-labeled anti-MUC5AC humanized antibody, and neutrophil gelatinase-associated lipocalin (NGAL), and creatinine concentration of the urine samples were measured by ELISA. […] The NGAL value corrected for urine concentration was calculated by dividing the obtained NGAL value by the creatinine value (urinary NGAL/creatinine ratio, hereinafter referred to as urinary N/C ratio). The calculated urinary N/C ratio was confirmed using Stat PreClinica (manufactured by Takumi Information Technology Co., Ltd.) for the homoscedasticity of the measured values. […]

O=C([O-])CN(CCN(CC(=O)[O-])CC(=O)[O-])CCN(CC(=O)[O-])CC(=O)[O-].[Na+].[Na+].[Na+].[Zn+2] [Comparative Example 2, Zn-DTPA]
body weight (CD-1 mice [1]): 44.48 ± 4.5 g
kidney weight (CD-1 mice [1]): 0.75 ± 0.12 g
kidney weight/body weight ratio (CD-1 mice [1]): 0.017 ± 0.001
N/C ratio (urinary NGAL/creatinine ratio) (CD-1 mice [2]): 1.1 ± 0.60
